Several values for one entry are separate records, joined by “and”; a condition that tells them apart may be missing. Equal entries are not always repeated.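 The compound was tested at five concentrations on cells cultured in 96-well plates, with a 48-hour exposure period. GI50 is the concentration that inhibits growth by half. The concentration for full growth arrest is given as TGI.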
Assays:
Assay in all cases: growth of human tumour cells (NCI), 48 h
[1] = test system: MOLT-4 leukemia
[2] = test system: SNB-19 CNS
[3] = test system: CAKI-1 renal
[4] = test system: SK-MEL-2 melanoma
[5] = test system: COLO 205 colon
[6] = test system: HOP-92 NSCLC
[7] = test system: UACC-62 melanoma
[8] = test system: HT29 colon
[9] = test system: SF-539 CNS
[10] = test system: MDA-MB-435

| Compound | GI50 [1] | TGI [1] | GI50 [2] | TGI [2] | GI50 [3] | TGI [3] | GI50 [4] | TGI [4] | GI50 [5] | TGI [5] | GI50 [6] | TGI [6] | GI50 [7] | TGI [7] | GI50 [8] | TGI [8] | GI50 [9] | TGI [9] | GI50 [10] | TGI [10] |
| --- | --- | --- | --- | --- | --- | --- | --- | --- | --- | --- | --- | --- | --- | --- | --- | --- | --- | --- | --- | --- |
| COc1ccc(/C=C2/CN(CCC#N)C/C(=C\c3ccc(OC)cc3)C2=O)cc1 | 3.69 µM | > 100 µM | 4.07 µM | > 100 µM | 2.82 µM | > 100 µM | 2.72 µM | 7.15 µM | 1.91 µM | 3.5 µM | 1.85 µM | 20.8 µM | 1.66 µM | 3.81 µM | 1.9 µM | 3.9 µM | 2.12 µM | 5.42 µM | 2.99 µM | > 100 µM |
| O=C1NC(=N[C@H](CO)c2ccccc2)S/C1=C\c1ccc2ncccc2c1 | 4.47 µM | 14.8 µM | 3.73 µM | > 25 µM | 3.75 µM | > 16 µM | 5.49 µM | 14.3 µM | 3.54 µM | > 25 µM | 4.59 µM | 18.7 µM | 5.74 µM | 24.7 µM | 6.1 µM | > 25 µM | 2.66 µM | 7.67 µM | 5.37 µM | > 25 µM |
| CCN1C(=O)N(CC)C2C1NN=c1s/c(=C\c3ccc(OC)cc3)c(=O)n12 (stereo unspecified) | 0.378 µM | > 100 µM | 0.471 µM | > 100 µM | 0.0577 µM | > 80.2 µM | 1.66 µM | > 100 µM | 0.192 µM | 0.616 µM | 3.25 µM | > 100 µM | 0.0704 µM | > 100 µM | 0.238 µM | > 82.4 µM | 0.103 µM | 0.545 µM | 0.031 µM | 0.105 µM |
| COc1ccc2c(c1)C(=O)c1c-2c(N2CCN(C(=O)CCNCCNCCO)CC2)nc2ccccc12 | 5.05 µM | 22.9 µM | 17.5 µM | 38 µM | 24 µM | 53.3 µM | 24.1 µM | 52.6 µM | 12.4 µM | 29.8 µM | 3.77 µM | 18.2 µM | 21.3 µM | 38.2 µM | 4.6 µM | 16.7 µM | 14.5 µM | 29.9 µM | 21.7 µM | 47.8 µM |
| Cc1cc2c(cc1Cl)SC(C(=O)c1ccc(Cl)c(Cl)c1)NS2(=O)=O (stereo unspecified) | 29.5 µM | 64.4 µM | 35 µM | > 100 µM | 97.4 µM | > 100 µM | 40.2 µM | > 100 µM | 21 µM | 44 µM | 25.2 µM | 65.9 µM | 22 µM | 42.9 µM | 36.1 µM | > 100 µM | 19.8 µM | 42.2 µM | 26.7 µM | 65.6 µM |
| N#Cc1ccc(/C=C/C(=O)c2ccccc2)cc1 | 9.4 µM and 6.4 µM | 53.3 µM and > 38.9 µM | 14.4 µM and 12.5 µM | 27.4 µM and 25.1 µM | 15.1 µM and 9.59 µM | 29.6 µM and 22.8 µM | 18.9 µM and 18.8 µM | 39.1 µM and 37.8 µM | 6.34 µM and 14.3 µM | 16.3 µM and 27.9 µM | 16.9 µM and 17.6 µM | 65.5 µM and 39 µM | 13.5 µM and 14 µM | 26.6 µM and 27.5 µM | 2.33 µM and 2.53 µM | 6.05 µM and 7 µM | 13.9 µM and 15.9 µM | 26.9 µM and 29.4 µM | 6.28 µM and 8.07 µM | 18 µM and 21.8 µM |
| CCc1ccc([O-])c(C=NCCCN(C)CCCN=Cc2cc(C)ccc2[O-])c1.[Co+3].[N-]=[N+]=[N-] | > 150 µg/mL | > 150 µg/mL | 40.6 µg/mL and 61.6 µg/mL | 50 µg/mL and 123 µg/mL | 50 µg/mL and 66.9 µg/mL | 50 µg/mL and > 150 µg/mL | 50 µg/mL and 44.7 µg/mL | 50 µg/mL and 135 µg/mL | 50 µg/mL and > 150 µg/mL | 50 µg/mL and > 150 µg/mL | 15.9 µg/mL and 22 µg/mL | 50 µg/mL and 54.7 µg/mL | 50 µg/mL and 78.2 µg/mL | 50 µg/mL and > 150 µg/mL | 50 µg/mL and > 150 µg/mL | 50 µg/mL and > 150 µg/mL | 50 µg/mL and 22.7 µg/mL | 50 µg/mL and 82.3 µg/mL | 50 µg/mL | 50 µg/mL |
| CC/C(=N/N=C(N)N)c1ccc(NC(=O)Nc2ccc(/C(CC)=N/N=C(N)N)cc2)cc1 | 2.07 µM | 6.51 µM | 8.55 µM | 85 µM | 15.1 µM | 39.4 µM | 4.03 µM | 31.2 µM | 3.25 µM | 21.2 µM | 5.67 µM | 35.2 µM | 5.13 µM | 22.7 µM | 7.12 µM | 28.1 µM | 8.04 µM | 35.9 µM | 3.72 µM | 16.2 µM |
| COc1cc(/C=C/c2cc(O)c(C/C=C(\C)CC/C=C(\C)CO)c(O)c2)cc2c1O[C@]1(C)CC[C@@H](O)C(C)(C)[C@H]1C2 | – | 0.0949 µM | > 91.9 µM | > 100 µM | 9.36 µM | > 42.9 µM | > 100 µM | > 100 µM | 3.21 µM and 15.6 µM | > 100 µM | – | > 84.6 µM | – | – | 31.1 µM | > 100 µM | 3.4 µM | 11.1 µM | 38.4 µM | > 79.6 µM |
